Source: US6673749B1, “Use of phyllocladane diterpenoids for plant growth promotion and alleviation of growth retardant allelochemicals, and method therefor” (Council of Scientific and Industrial Research, priority 2002, dated 2004)

Assays:
Assay in all cases: Seed germination and seedling shoot/root growth test in petridishes
Format in all cases: in vivo
Triticum aestivum = conditions: control = 100%
Experimental: (§1) As noted above the activity of phyllocladane diterpenoids used in the practice of this invention was observed when these compounds were tested for their effects on seed germination, root and shoot growth of certain plant species and their antagonistic effect on plant growth retardants by the method described by Bagchi G. D. et al Phytochemistry, 45(6)1131-1133, 1997.
(§2) Plant growth promoting activity of calliterpenone, calliterpenone monoacetate, and calliterpenone di-acetate was examined at 0.1, 0.01 and 0.001 μM concentrations. The tests were conducted against seeds of two monocotyledonous (Hordeum vulgare and Triticum aestivum) and two dicotyledonous plants (Vigna radiata and Trigonella foenum-graecum). Control seeds were germinated in distilled water and all the observations were compared with […]. The root and shoot growth of all the plant species were affected by the phyllocladane diterpenoids, although the extent of effect varied considerably in the plant species with the chemicals and their concentrations. […] Details of the procedure adopted and results obtained are discussed in the various examples.
(§3) 100 ml stalk solutions of 0.1 μM concentration were prepared by dissolving required amounts of various test compounds (depending upon their molecular weights) in minimum amount of ethanol or acetone and adding distilled water. From this stalk solution, 0.01 μM and 0.001 μM concentrations were prepared. Calliterpenone and calliterpenone di acetate was dissolved in 2.0 ml absolute ethanol (Merc), while; calliterpenone monoacetate, isopropylideno calliterpenone and trihydroxy calliterpenone were dissolved in 2.0 ml spectral grade acetone (Ranbaxy). The respective control test solutions of distilled water of each concentration also contained equal amount of absolute ethanol or acetone. For an assay, 10 seeds were placed on Whatman filter paper (moistened with 5.0 ml of test solution in a 9.0 cm diameter petridish (in triplicate). The pteridishes were incubated for 9 days in a germinator, maintained at 25.0±1.0° C. with 90% humidity and 4 hr light/day. At the end of incubation, observations were recorded on the seedlings in terms of germination, shoot and root growth. The data on the length of shoot and root of seedlings and number of seeds germinated in different concentrations of compounds were compared with the control, which was taken as 100%. The data thus obtained were presented in Table-1.
(§4) Root growth of seedlings was measured in the similar way as shoot growth from the experiment as described in Example 1.
(§5) Effect of test compounds on germination was observed from the same experiment as described in Example 1.

Hordeum vulgare = conditions: control = 100%
Experimental: as §1, §2, §3, §4, §5

Vigna radiata = conditions: Vigna radiata, control = 100%
Experimental: as §1, §2, §3, §4, §5

[1] = tested on: Trigonella foenum-graecum; conditions: Trigonella foenum graecum, control = 100%
Experimental: as §1, §2, §3, §4, §5

Compound: CC1(C)OCC2(CC34CCC5C(C)(C)C(=O)CCC5(C)C3CCC2C4)O1 (stereo not drawn) [Isopropylideno Calliterpenone, 16α, 17-isopropylidino 3-oxo phyllocladane]
- Percent (%) germination of seeds in relation to control on 9th day after sowing (Triticum aestivum; 0.001 μM): 100%
- Percent (%) root growth of seedlings in relation to control on 9th day after sowing (Triticum aestivum; 0.001 μM): 109%
- Percent (%) shoot growth of seedlings in relation to control on 9th day after sowing (Triticum aestivum; 0.001 μM): 103%
- Percent (%) germination of seeds in relation to control on 9th day after sowing (Triticum aestivum; 0.01 μM): 100%
- Percent (%) root growth of seedlings in relation to control on 9th day after sowing (Triticum aestivum; 0.01 μM): 107%
- Percent (%) shoot growth of seedlings in relation to control on 9th day after sowing (Triticum aestivum; 0.01 μM): 103%
- Percent (%) germination of seeds in relation to control on 9th day after sowing (Triticum aestivum; 0.1 μM): 100%
- Percent (%) root growth of seedlings in relation to control on 9th day after sowing (Triticum aestivum; 0.1 μM): 78%
- Percent (%) shoot growth of seedlings in relation to control on 9th day after sowing (Triticum aestivum; 0.1 μM): 102%
- Percent (%) germination of seeds in relation to control on 9th day after sowing (Hordeum vulgare; 0.001 μM): 100%
- Percent (%) root growth of seedlings in relation to control on 9th day after sowing (Hordeum vulgare; 0.001 μM): 118%
- Percent (%) shoot growth of seedlings in relation to control on 9th day after sowing (Hordeum vulgare; 0.001 μM): 106%
- Percent (%) germination of seeds in relation to control on 9th day after sowing (Hordeum vulgare; 0.01 μM): 100%
- Percent (%) root growth of seedlings in relation to control on 9th day after sowing (Hordeum vulgare; 0.01 μM): 115%
- Percent (%) shoot growth of seedlings in relation to control on 9th day after sowing (Hordeum vulgare; 0.01 μM): 107%
- Percent (%) germination of seeds in relation to control on 9th day after sowing (Hordeum vulgare; 0.1 μM): 100%
- Percent (%) root growth of seedlings in relation to control on 9th day after sowing (Hordeum vulgare; 0.1 μM): 143%
- Percent (%) shoot growth of seedlings in relation to control on 9th day after sowing (Hordeum vulgare; 0.1 μM): 108%
- Percent (%) germination of seeds in relation to control on 9th day after sowing (Vigna radiata; 0.001 μM): 150%
- Percent (%) root growth of seedlings in relation to control on 9th day after sowing (Vigna radiata; 0.001 μM): 91%
- Percent (%) shoot growth of seedlings in relation to control on 9th day after sowing (Vigna radiata; 0.001 μM): 89%
- Percent (%) germination of seeds in relation to control on 9th day after sowing (Vigna radiata; 0.01 μM): 100%
- Percent (%) root growth of seedlings in relation to control on 9th day after sowing (Vigna radiata; 0.01 μM): 131%
- Percent (%) shoot growth of seedlings in relation to control on 9th day after sowing (Vigna radiata; 0.01 μM): 153%
- Percent (%) germination of seeds in relation to control on 9th day after sowing (Vigna radiata; 0.1 μM): 100%
- Percent (%) root growth of seedlings in relation to control on 9th day after sowing (Vigna radiata; 0.1 μM): 124%
- Percent (%) shoot growth of seedlings in relation to control on 9th day after sowing (Vigna radiata; 0.1 μM): 145%
- Percent (%) germination of seeds in relation to control on 9th day after sowing ([1]; 0.001 μM): 100%
- Percent (%) root growth of seedlings in relation to control on 9th day after sowing ([1]; 0.001 μM): 132%
- Percent (%) shoot growth of seedlings in relation to control on 9th day after sowing ([1]; 0.001 μM): 137%
- Percent (%) germination of seeds in relation to control on 9th day after sowing ([1]; 0.01 μM): 113%
- Percent (%) root growth of seedlings in relation to control on 9th day after sowing ([1]; 0.01 μM): 123%
- Percent (%) shoot growth of seedlings in relation to control on 9th day after sowing ([1]; 0.01 μM): 123%
- Percent (%) root growth of seedlings in relation to control on 9th day after sowing ([1]; 0.01 μM, listed as Iso-propylideno calliterpenone): 132%
- Percent (%) germination of seeds in relation to control on 9th day after sowing ([1]; 0.1 μM): 100%
- Percent (%) root growth of seedlings in relation to control on 9th day after sowing ([1]; 0.1 μM): 91%
- Percent (%) shoot growth of seedlings in relation to control on 9th day after sowing ([1]; 0.1 μM): 100%

Compound: CC(=O)OCC1(OC(C)=O)CC23CCC4C(C)(C)C(=O)CCC4(C)C2CCC1C3 (stereo not drawn) [Calliterpenone Diacetate, calliterpenone diacetate]
- Percent (%) germination of seeds in relation to control on 9th day after sowing (Triticum aestivum; 0.001 μM): 100%
- Percent (%) root growth of seedlings in relation to control on 9th day after sowing (Triticum aestivum; 0.001 μM): 125%
- Percent (%) shoot growth of seedlings in relation to control on 9th day after sowing (Triticum aestivum; 0.001 μM): 109%
- Percent (%) germination of seeds in relation to control on 9th day after sowing (Triticum aestivum; 0.01 μM): 100%
- Percent (%) root growth of seedlings in relation to control on 9th day after sowing (Triticum aestivum; 0.01 μM): 114%
- Percent (%) shoot growth of seedlings in relation to control on 9th day after sowing (Triticum aestivum; 0.01 μM): 106%
- Percent (%) germination of seeds in relation to control on 9th day after sowing (Triticum aestivum; 0.1 μM): 90%
- Percent (%) root growth of seedlings in relation to control on 9th day after sowing (Triticum aestivum; 0.1 μM): 103%
- Percent (%) shoot growth of seedlings in relation to control on 9th day after sowing (Triticum aestivum; 0.1 μM): 103%
- Percent (%) germination of seeds in relation to control on 9th day after sowing (Hordeum vulgare; 0.001 μM): 100%
- Percent (%) root growth of seedlings in relation to control on 9th day after sowing (Hordeum vulgare; 0.001 μM): 119%
- Percent (%) shoot growth of seedlings in relation to control on 9th day after sowing (Hordeum vulgare; 0.001 μM): 108%
- Percent (%) germination of seeds in relation to control on 9th day after sowing (Hordeum vulgare; 0.01 μM): 100%
- Percent (%) root growth of seedlings in relation to control on 9th day after sowing (Hordeum vulgare; 0.01 μM): 113%
- Percent (%) shoot growth of seedlings in relation to control on 9th day after sowing (Hordeum vulgare; 0.01 μM): 106%
- Percent (%) root growth of seedlings in relation to control on 9th day after sowing (Hordeum vulgare; 0.01 μM, listed as Calliterpenone diacetate): 119%
- Percent (%) germination of seeds in relation to control on 9th day after sowing (Hordeum vulgare; 0.1 μM): 100%
- Percent (%) root growth of seedlings in relation to control on 9th day after sowing (Hordeum vulgare; 0.1 μM): 98%
- Percent (%) shoot growth of seedlings in relation to control on 9th day after sowing (Hordeum vulgare; 0.1 μM): 105%
- Percent (%) germination of seeds in relation to control on 9th day after sowing (Vigna radiata; 0.001 μM): 200%
- Percent (%) root growth of seedlings in relation to control on 9th day after sowing (Vigna radiata; 0.001 μM): 91%
- Percent (%) shoot growth of seedlings in relation to control on 9th day after sowing (Vigna radiata; 0.001 μM): 111%
- Percent (%) germination of seeds in relation to control on 9th day after sowing (Vigna radiata; 0.01 μM): 100%
- Percent (%) root growth of seedlings in relation to control on 9th day after sowing (Vigna radiata; 0.01 μM): 136%
- Percent (%) shoot growth of seedlings in relation to control on 9th day after sowing (Vigna radiata; 0.01 μM): 115%
- Percent (%) germination of seeds in relation to control on 9th day after sowing (Vigna radiata; 0.1 μM): 100%
- Percent (%) root growth of seedlings in relation to control on 9th day after sowing (Vigna radiata; 0.1 μM): 93%
- Percent (%) shoot growth of seedlings in relation to control on 9th day after sowing (Vigna radiata; 0.1 μM): 119%
- Percent (%) germination of seeds in relation to control on 9th day after sowing ([1]; 0.001 μM): 100%
- Percent (%) root growth of seedlings in relation to control on 9th day after sowing ([1]; 0.001 μM): 73%
- Percent (%) shoot growth of seedlings in relation to control on 9th day after sowing ([1]; 0.001 μM): 81%
- Percent (%) root growth of seedlings in relation to control on 9th day after sowing ([1]; 0.001 μM, listed as Calliterpenone diacetate): 113%
- Percent (%) germination of seeds in relation to control on 9th day after sowing ([1]; 0.01 μM): 100%
- Percent (%) root growth of seedlings in relation to control on 9th day after sowing ([1]; 0.01 μM): 113%
- Percent (%) shoot growth of seedlings in relation to control on 9th day after sowing ([1]; 0.01 μM): 121%
- Percent (%) germination of seeds in relation to control on 9th day after sowing ([1]; 0.1 μM): 75%
- Percent (%) root growth of seedlings in relation to control on 9th day after sowing ([1]; 0.1 μM): 95%
- Percent (%) shoot growth of seedlings in relation to control on 9th day after sowing ([1]; 0.1 μM): 94%
